According to PubChem BioAssay (NCI):
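Interpolation was linear, between the two tested concentrations surrounding the appropriate level; five concentrations were tested over 48 hours in 96-well plates. TGI is the concentration that stops growth completely.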

Columns and labels:
Test in all cases: NCI anticancer screen, dose series, 48 h
SK-MEL-28 melanoma = test system: SK-MEL-28 melanoma
NCI-H460 lung = test system: NCI-H460 lung
OVCAR-4 ovarian = test system: OVCAR-4 ovarian
SN12C renal = test system: SN12C renal
CCRF-CEM leukemia = test system: CCRF-CEM leukemia
UO-31 renal = test system: UO-31 renal
DU-145 prostate = test system: DU-145 prostate
BT-549 breast = test system: BT-549 breast
HCC-2998 colon = test system: HCC-2998 colon
IGROV1 ovarian = test system: IGROV1 ovarian
UACC-62 melanoma = test system: UACC-62 melanoma
UACC-257 melanoma = test system: UACC-257 melanoma
MDA-MB-435 = test system: MDA-MB-435
HL-60(TB) leukemia = test system: HL-60(TB) leukemia
OVCAR-8 ovarian = test system: OVCAR-8 ovarian
MALME-3M melanoma = test system: MALME-3M melanoma
MCF7 breast = test system: MCF7 breast
HCT-15 colon = test system: HCT-15 colon
NCI-H226 lung = test system: NCI-H226 lung
COLO 205 colon = test system: COLO 205 colon
LOX IMVI melanoma = test system: LOX IMVI melanoma
SR leukemia = test system: SR leukemia
CAKI-1 renal = test system: CAKI-1 renal
OVCAR-3 ovarian = test system: OVCAR-3 ovarian
SF-268 CNS = test system: SF-268 CNS
SW-620 colon = test system: SW-620 colon
SK-MEL-5 melanoma = test system: SK-MEL-5 melanoma
A549 NSCLC = test system: A549 NSCLC
HOP-62 NSCLC = test system: HOP-62 NSCLC
NCI-H23 lung = test system: NCI-H23 lung
TK-10 renal = test system: TK-10 renal
MOLT-4 leukemia = test system: MOLT-4 leukemia
T-47D breast = test system: T-47D breast
EKVX NSCLC = test system: EKVX NSCLC
NCI/ADR-RES ovarian = test system: NCI/ADR-RES ovarian
MDA-MB-231 breast = test system: MDA-MB-231 breast
SF-539 CNS = test system: SF-539 CNS
HT29 colon = test system: HT29 colon
786-0 renal = test system: 786-0 renal
MDA-N = test system: MDA-N
NCI-H522 lung = test system: NCI-H522 lung
ACHN renal = test system: ACHN renal
SNB-19 CNS = test system: SNB-19 CNS
K-562 leukemia = test system: K-562 leukemia
HCT-116 colon = test system: HCT-116 colon
KM12 colon = test system: KM12 colon
M14 melanoma = test system: M14 melanoma
SF-295 CNS = test system: SF-295 CNS
U251 CNS = test system: U251 CNS
HS 578T breast = test system: HS 578T breast
RPMI-8226 leukemia = test system: RPMI-8226 leukemia

Measured: TGI

COc1nc(=O)n(C2CC(F)C(CO)O2)cc1C (stereo unspecified)
> 100 µM: all assays above
